Measurements reported in PubChem BioAssay AID248 (DTP/NCI, 2004).
Inconclusive results and toxic doses are left out. Cut-off read from the data, not from the text of the source: active = T/C of 150% or more; inactive = T/C below 125%.

Test system: L1210 leukemia ip in BDF1 mice, survival T/C
Experiment: NCI In Vivo Anticancer Drug Screen. Data for tumor model L1210 Leukemia (intraperitoneal) in B6D2F1 (BDF1) mice
Conditions: endpoint: mean survival time, higher = longer survival
In short: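 Survival endpoint. Drug-treated group vs vehicle group, expressed as T divided by C. Tumor passaged by transplantation.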

[1] = dose: 50.0 mg/kg/injection, schedule: Q01DX001 (ip), vehicle: carboxymethylcellulose (CMC)
[2] = dose: 100.0 mg/kg/injection, schedule: Q01DX001 (ip), vehicle: carboxymethylcellulose (CMC)
[3] = dose: 200.0 mg/kg/injection, schedule: Q01DX001 (ip), vehicle: carboxymethylcellulose (CMC)
[4] = dose: 400.0 mg/kg/injection, schedule: Q01DX001 (ip), vehicle: carboxymethylcellulose (CMC)
[5] = dose: 100.0 mg/kg/injection, schedule: Q01DX009 (ip), vehicle: saline
[6] = dose: 100.0 mg/kg/injection, schedule: Q04DX003 (ip), vehicle: saline
[7] = dose: 200.0 mg/kg/injection, schedule: Q01DX009 (ip), vehicle: saline
[8] = dose: 200.0 mg/kg/injection, schedule: Q04DX003 (ip), vehicle: saline
[9] = dose: 400.0 mg/kg/injection, schedule: Q04DX003 (ip), vehicle: saline
[10] = dose: 100.0 mg/kg/injection, schedule: Q04DX002 (ip), vehicle: Klucel (hydroxypropylcellulose) (HPC)
[11] = dose: 400.0 mg/kg/injection, schedule: Q04DX002 (ip), vehicle: Klucel (hydroxypropylcellulose) (HPC)
[12] = dose: 100.0 mg/kg/injection, schedule: Q04DX003 (ip), vehicle: saline with Tween-80
[13] = dose: 200.0 mg/kg/injection, schedule: Q04DX003 (ip), vehicle: saline with Tween-80
[14] = dose: 400.0 mg/kg/injection, schedule: Q04DX003 (ip), vehicle: saline with Tween-80
[15] = dose: 100.0 mg/kg/injection, schedule: Q04DX003 (ip), vehicle: Klucel (hydroxypropylcellulose) (HPC)
[16] = dose: 200.0 mg/kg/injection, schedule: Q04DX003 (ip), vehicle: Klucel (hydroxypropylcellulose) (HPC)
[17] = dose: 400.0 mg/kg/injection, schedule: Q04DX003 (ip), vehicle: Klucel (hydroxypropylcellulose) (HPC)
[18] = dose: 50.0 mg/kg/injection, schedule: Q01DX001 (ip), vehicle: saline
[19] = dose: 100.0 mg/kg/injection, schedule: Q01DX001 (ip), vehicle: saline
[20] = dose: 200.0 mg/kg/injection, schedule: Q01DX001 (ip), vehicle: saline

Measured: T/C

CCOP(=O)(Nc1ccc2oc(=O)c3ccccc3c2c1)OCC
inactive: [1] 100 % of control | [2] 100 % of control | [3] 110 % of control | [4] 97 % of control

O=S(O)OS(=O)O
inactive: [5] 93 % of control | [6] 100 % of control | [7] 90 % of control | [8] 104 % of control | dose: 400.0 mg/kg/injection, schedule: Q01DX009 (ip), vehicle: saline 86 % of control | [9] 102 % of control

O=C(Nc1cccc2ccccc12)SCc1ccccc1
inactive: [10] 94 % of control | [11] 90 % of control

[CH3][Sb]([CH3])([CH3])([O]C(=O)CF)[O]C(=O)CF
inactive: dose: 1.25 mg/kg/injection, schedule: Q04DX003 (ip), vehicle: saline with Tween-80 91 % of control | dose: 2.5 mg/kg/injection, schedule: Q04DX003 (ip), vehicle: saline with Tween-80 96 % of control | dose: 5.0 mg/kg/injection, schedule: Q04DX003 (ip), vehicle: saline with Tween-80 110 % of control | dose: 5.0 mg/kg/injection, schedule: Q04DX003 (ip), vehicle: saline 107 % of control

COC1OC(CO)C(O)C([N+](=O)[O-])C1O (centres undefined)
inactive: [6] 98 % of control | [8] 102 % of control | [9] 105 % of control

COc1cccc(OC)c1C(c1c(OC)cccc1OC)c1c(OC)cccc1OC
inactive: [12] 95 % of control | [13] 91 % of control | [14] 101 % of control

c1ccc2c(c1)ccc1cc3c4ccccc4c4ccccc4c3cc12
inactive: [1] 97 % of control | [3] 90 % of control | [4] 106 % of control

COc1ccc2c(c1)CCC1(C)CC(C)C(=O)C=C21 (centres undefined)
inactive: [15] 92 % of control | [16] 91 % of control | [17] 92 % of control

O=C(Nc1cccc(C2=NCCCN2)c1)c1ccc(C(=O)Nc2cccc(C3=NCCCN3)c2)c([N+](=O)[O-])c1
inactive: dose: 0.05 mg/kg/injection, schedule: Q01DX015 (ip), vehicle: water 98 % of control | dose: 0.09 mg/kg/injection, schedule: Q01DX015 (ip), vehicle: water 96 % of control | dose: 0.19 mg/kg/injection, schedule: Q01DX015 (ip), vehicle: water 98 % of control | dose: 0.38 mg/kg/injection, schedule: Q01DX015 (ip), vehicle: water 101 % of control | dose: 0.5 mg/kg/injection, schedule: Q01DX015 (ip), vehicle: water 97 % of control

CNc1cc([N+](=O)[O-])ccc1OCc1ccccc1
inactive: dose: 75.0 mg/kg/injection, schedule: Q01DX009 (ip), vehicle: saline with Tween-80 87 % of control | [12] 89 % of control | dose: 150.0 mg/kg/injection, schedule: Q01DX009 (ip), vehicle: saline with Tween-80 87 % of control | [13] 92 % of control | dose: 300.0 mg/kg/injection, schedule: Q01DX009 (ip), vehicle: saline with Tween-80 91 % of control | [14] 101 % of control

O=C(/C=C/c1ccccc1)CC(=O)c1ccccc1.O=C(/C=C/c1ccccc1)CC(=O)c1ccccc1.[Cu]
inactive: [18] 94 % of control | [19] 91 % of control | [20] 91 % of control | dose: 400.0 mg/kg/injection, schedule: Q01DX001 (ip), vehicle: saline 97 % of control

CC12c3ccccc3C(c3c1ccc1ccccc31)C1C(=O)OC(=O)C12 (centres undefined)
inactive: [15] 96 % of control | [16] 104 % of control | [17] 98 % of control

O=C(/C=N/O)Nc1ccc([N+](=O)[O-])cc1
inactive: [10] 92 % of control | dose: 200.0 mg/kg/injection, schedule: Q04DX002 (ip), vehicle: Klucel (hydroxypropylcellulose) (HPC) 100 % of control | [11] 92 % of control

CCOC(=O)CC1C(=O)CCCC1=O
inactive: dose: 100.0 mg/kg/injection, schedule: Q01DX001 (ip), vehicle: saline with Tween-80 98 % of control | dose: 200.0 mg/kg/injection, schedule: Q01DX001 (ip), vehicle: saline with Tween-80 104 % of control | dose: 400.0 mg/kg/injection, schedule: Q01DX001 (ip), vehicle: saline with Tween-80 95 % of control

CC/C(C)=C\CC/C(C)=C/COc1cccc(C(C)=O)c1
inactive: dose: 75.0 mg/kg/injection, schedule: Q01DX009 (ip), vehicle: carboxymethylcellulose (CMC) 94 % of control | dose: 150.0 mg/kg/injection, schedule: Q01DX009 (ip), vehicle: carboxymethylcellulose (CMC) 90 % of control | dose: 300.0 mg/kg/injection, schedule: Q01DX009 (ip), vehicle: carboxymethylcellulose (CMC) 92 % of control

CCc1cc2c(cc1/C(C)=N/N=C(\C)c1cc3c(cc1CC)C(C)(C)CCC3(C)C)C(C)(C)CCC2(C)C
inactive: dose: 100.0 mg/kg/injection, schedule: Q01DX009 (ip), vehicle: Klucel (hydroxypropylcellulose) (HPC) 97 % of control | dose: 200.0 mg/kg/injection, schedule: Q01DX009 (ip), vehicle: Klucel (hydroxypropylcellulose) (HPC) 89 % of control | dose: 400.0 mg/kg/injection, schedule: Q01DX009 (ip), vehicle: Klucel (hydroxypropylcellulose) (HPC) 93 % of control

Cc1ccc(NC(=O)Nc2cc(S(=O)(=O)O)ccc2Oc2ccccc2Cl)cc1
inactive: dose: 100.0 mg/kg/injection, schedule: Q01DX009 (ip), vehicle: saline sonified 95 % of control | dose: 200.0 mg/kg/injection, schedule: Q01DX009 (ip), vehicle: saline sonified 103 % of control

O=C1OC(=O)C2C3C=CC(C4C=CC43)C12 (centres undefined)
inactive: [5] 93 % of control | dose: 100.0 mg/kg/injection, schedule: Q04DX002 (ip), vehicle: saline with Tween-80 103 % of control | [6] 86 % of control | [7] 102 % of control | dose: 200.0 mg/kg/injection, schedule: Q04DX002 (ip), vehicle: saline with Tween-80 100 % of control | [8] 93 % of control | [9] 100 % of control

CSc1nc(SC)c2c(ncn2C2OC(CO)C(O)C2O)n1 (centres undefined)
inactive: [18] 111 % of control | [19] 102 % of control | [20] 104 % of control

CC1(C)OC(CF)C2OC(C)(C)OC(CF)C2O1 (centres undefined)
inactive: dose: 56.25 mg/kg/injection, schedule: Q01DX009 (ip), vehicle: carboxymethylcellulose (CMC) 95 % of control | [2] 96 % of control | dose: 112.5 mg/kg/injection, schedule: Q01DX009 (ip), vehicle: carboxymethylcellulose (CMC) 102 % of control | [3] 96 % of control | [4] 104 % of control

CC(=O)O/N=C(/C)c1ccccc1
inactive: dose: 75.0 mg/kg/injection, schedule: Q01DX009 (ip), vehicle: saline sonified 102 % of control | dose: 100.0 mg/kg/injection, schedule: Q04DX003 (ip), vehicle: saline sonified 100 % of control | dose: 150.0 mg/kg/injection, schedule: Q01DX009 (ip), vehicle: saline sonified 100 % of control | dose: 200.0 mg/kg/injection, schedule: Q04DX003 (ip), vehicle: saline sonified 97 % of control | dose: 400.0 mg/kg/injection, schedule: Q04DX003 (ip), vehicle: saline sonified 100 % of control

Nc1ccc(P(=O)(O)O)cc1
inactive: [1] 101 % of control | [2] 97 % of control | [3] 91 % of control | [4] 91 % of control
